Test results: patent US12357702B2, “Peptidic diagnostic compositions” (S. M. Discovery Group Inc., priority 2013, dated 2025)
One block for each compound: values may come before it. Where a SMILES comes first, the peptide text is derived from it. Where no end group is shown, it is not given here. The star is where a group is joined. RhodamineB = CCN(CC)c1ccc2c(-c3ccccc3C(=O)*)c3ccc(=[N+](CC)CC)cc-3oc2c1; 5FAM = O=C1OC2(c3ccc(O)cc3Oc3cc(O)ccc32)c2ccc(C(=O)*)cc21; FAM = fluorescein amidite label

Legend:
[1] = test system: hCMEC/D3 cells; experiment: LDH cytotoxicity assay; assay type: cell-based, human; settings: 24 h; for LDH leakage in the medium compared to the control: 1 to 20 μM peptide
Experimental: Cell viability assessment following treatment of cells with the fluorescent peptide FIG. 26A or siRNA/FAM-CGY complex FIG. 26B for 24 h, determined by LDH assay (n=6). Background: untreated cells. To examine the cytotoxicity of the peptide and the siRNA/FAM-CGY complex, the hCMEC/D3 cells were incubated with concentrations 1, 2, 5, 10, 20 μM of the peptide and different relations of siRNA/FAM-CGY complexes (8:5, 16:5 or 24:5) for 24 h, the viability of cells without treatment was used as a control. The cytotoxicity was measured by a LDH assay. The LDH assay measures the membrane integrity as a function of the amount of cytoplasmic LDH leaked into the medium.
The cytoxicity of FAM-CGY peptide and siRNA/FAM-CGY complex was evaluated by […] (LDH) assay (FIG. 26). The hCMEC/D3 cells were incubated with different concentrations of the peptide (from 1 to 20 μM) and different formulations of siRNA/FAM-CGY complexes for 24 h. The viability of cells without treatment was used as a control. The LDH assay has means of measuring the membrane integrity as a function of the amount of cytoplasmic LDH leaked into the medium. […] Thus, there were no significant differences observed between the groups treated with FAM-CGY, FAM-d-CGY and CGY-FAM.

[2] = test system: complement activation products SC5d-9, C5a, and C3a; experiment: complement activation in human serum; settings: healthy human serum, low and high concentration
Experimental: FIGS. 12A, 12B, and 12C are graphs illustrating a complement activation experiment. The complement activation products FIG. 12A. […], FIG. 12B. C5a, and FIG. 12C. C3a were quantified in healthy human serum after incubation of CGY, FAM-CGY and FAM-d-CGY peptide at low and high concentration. Background noise and positive control (Zymosan) are presented for each product. Complement activation and fixation is a fundamental process contributing to macrophage clearance of intravenously injected nanopaticles. Accordingly, complement activation studies in human serum were performed with low and high concentrations of FAM-CGY peptide and other peptides (CGY, FAM-d-CGY) for comparison. […] The responses were relatively low, and close to the background activation. Only a slight level of complement activation was observed compared to the positive control (Zymosan). There were no systematic differences between the activation below and above CMC. Conclusion: The FAM-CGY nanoparticles are unlikely to induce complement-mediated immune reactions following intravenous injection.

[3] = test system: hCMEC/D3 cells; experiment: uptake of FAM-CGY and FAM-GYR-GYR peptides by FACS; assay type: cell-based, human; settings: 1-10 μM, 24 h, all tested concentrations
Experimental: The different cellular uptake of FAM-CGY and FAM-GYR-GYR peptides in hCMEC/D3 cells was investigated by flow cytometry (FACS). hCMEC/D3 cells (2×10^4/cm^2) were seeded on 24-well plate (Corning, NY) and grown 2 days at 37° C. and 5% CO2 in order to reach 60%-70% confluency. The cells were washed 3 times with pre-heated PBS. The peptide uptake experiments were initiated by adding 200 μL of a range of FAM-CGY and FAM-GYR-GYR in different concentrations (1-10 μM/L, diluted in cell medium containing serum). The double peptide contains the sequence […](SEQ ID NO: 2) and optionally has an N-terminal cysteine residue.
After 24 h incubation at 37° C. with 5% CO2, each chamber was washed with pre-heated PBS 3 times, and harvested by trypsinization. A total of 10,000 cells were analyzed by flow cytometry (FACS Array™ Cell Analysis, BD, USA) (FIG. 35).

[4] = test system: brain capillary endothelial cells; settings: cited from earlier work
[5] = test system: hCMEC/D3 cells; experiment: double peptide-mediated GFP plasmid transfection; assay type: cell-based, human
Experimental: To evaluate double peptide (DP)-mediated gene transfection, different concentrations of DP and constant amounts of pcDNA3.1 NT-GFP expression plasmid (0.3 μg) (the peptide/DNA change ration of 1:10, 1:20 and 1:40 were investigated in this study) were mixed into 50 μL serum free media, and complexes were formed for 1 h at room temperature, after which another 150 μL serum free media was added (total volume of peptide/DNA complex was 200 μL). The cultured hCMEC/D3 cells (2×10^4 cells) were overlaid with 200 μL peptide/DNA complex, followed by incubation for 4 h at 37° C. in 5% CO2 atmosphere. The cultures were then a washed once with serum-free media and transferred to complete media containing 5% serum for growth. After 48 h, GFP gene expressions were monitored by fluorescence microscopy. Lipofectamine® 2000-mediated transfections were performed as described by the manufacturer's protocol (Life Technologies, CA, USA).

[6] = Nanoparticle Tracking Analysis (NTA) of peptide self-assembly; assay type: physicochemical; settings: in MQ water
Experimental: To investigate whether the polypeptide conjugate can self-assemble, Nanoparticle Tracking Analysis (NTA) technology was employed to detect the peptide aggregation. Briefly, 1 mL peptide solutions with different concentrations (0.5, 1, 2.5 and 5 μM) were prepared by diluting the peptide stock solutions (500 μM) with MQ water and incubate for 30 min at room temperature. NTA measurements were performed with a NanoSight LM20 (NanoSight Ltd., Amesbury, United Kingdom) equipped with a sample chamber with a 405 nm blue laser and a Viton fluoroelastomer O-ring. The peptide samples were injected in the sample chamber with sterile syringes (BD Discardit II, New Jersey, USA) until the liquid reached the tip of the nozzle. All measurements were performed at room temperature. For the pH effect of FAM-CGY peptide assembly, FAM-CGY stock solution (500 μM) was diluted into 5 μM with 10 mM HEPES buffer where pH values were adjusted with 1 M HCl or 1 M NaOH, respectively.
Different molar rates of siRNA were added to the FAM-CGY peptide solution (50 μM/L) dropwise in saline solution and incubated for 30 min. […] The atomic force microscopy (AFM) (FIG. 22A), nanoparticle tracking analysis (NTA) (FIG. 22B), fluorescence microscopy (not shown), dynamic light scattering (DLS) technology (not shown) and transmission electron microscopy (TEM) (FIG. 23) were employed to characterize the siRNA/FAM-CGY complex. […]

[7] = test system: hCMEC/D3 cells; experiment: delivery of cargo peptides by Rh-CGY or CGY peptidic complexes (microscopy, FACS); assay type: cell-based, human; settings: 10 μM Rh-CGY or CGY peptide, 24 h
Experimental: Peptidic complexes were formed by drop addition of cargoes (FAM-(C)-NAP, FAM-GYR, FAM-NAP, FAM) to 80 μM rhodamine-conjugated CGY peptide (Rh-CGY) or 80 μM CGY peptide (Table X) in MilliQ (MQ) water with equitable liquid volume and incubated for 60 min. The mixture was diluted with MQ water to a final Rh-CGY or CGY peptide concentration of 10 μM. The peptidic complexes were characterized by NTA for size and electron microscopy (EM) for mophology. Western blot was also employed to detect disulfide bond, which form between the cargo and Rh-CGY peptide or CGY peptide. Briefly, the peptide or complex samples were loaded on 10% Bis-Tris mini gels (Invitrogen, CA, USA) and subjected to electrophoresis. The separated samples were electrophoretically transferred to PVDF membranes by use of an iBlot™ Gel Transfer Device (Life Technologies, USA). Membranes were blocked for 1 h at room temperature in 3% BSA/TBST (137 mM Sodium Chloride, 20 mM Tris, 0.1% Tween-20, pH 7.6), and incubated over night at 4° C. with HRP-Goat anti-Fluorescein antibody (diluted 1:1000 in 2% BSA/TBST). For detection, membranes were incubated with Novex® ECL Chemiluminescent Substrate Reagent Kit (Invitrogen, CA, USA).
Delivery peptide to hCMEC/D3 cells. […] Live cell images were obtained by widefield microscopy, and the intercellular fluorescence intensity was quantified by FACS.

Compound: 5-FAM-dCys-dGly-dTyr-dArg-dPro-dVal-dHis-dAsn-dIle-dArg-dGly-dHis-dTrp-dAla-dPro-dGly [FAM-d-CGY]
LDH leakage in the medium compared to the control [1]: did not significantly increase

effect on the level of complement activation products SC5d-9, C5a, and C3a [2]: no significant effect
Compound: CC[C@H](C)[C@H](NC(=O)[C@H](CC(N)=O)NC(=O)[C@H](Cc1c[nH]cn1)NC(=O)[C@@H](NC(=O)[C@@H]1CCCN1C(=O)[C@H](CCCNC(=N)N)NC(=O)[C@H](Cc1ccc(O)cc1)NC(=O)CNC(=O)[C@H](CS)NC(=O)c1ccc2c(c1)C(=O)OC21c2ccc(O)cc2Oc2cc(O)ccc21)C(C)C)C(=O)N[C@@H](CCCNC(=N)N)C(=O)NCC(=O)N[C@@H](Cc1c[nH]cn1)C(=O)N[C@@H](Cc1c[nH]c2ccccc12)C(=O)N[C@@H](C)C(=O)N1CCC[C@H]1C(=O)NCC(=O)O [FAM-CGY] (5FAM-CGYRPVHNIRGHWAPG-OH)
LDH leakage in the medium compared to the control [1]: did not significantly increase | cytotoxicity (LDH assay) [1]: no significant cytotoxicity

Compound: Cys-Gly-Tyr-Arg-Pro-Val-His-Asn-Ile-Arg-Gly-His-Trp-Ala-Pro-Gly-Lys-5-FAM (CGYRPVHNIRGHWAPGK(5FAM); not fully specified (C-terminus); printed as Cys-Gly-Tyr-Arg-Pro-Val-His-Asn-Ile-Arg-Gly-His-Trp-Ala-Pro-Gly-Lys-5-FAM) [CGY-FAM]
LDH leakage in the medium compared to the control [1]: did not significantly increase

Compound: FAM-GYR-GYR: FAM-labelled double peptide containing SEQ ID NO: 2, two GYR sequences joined by a glycine residue ({FAM}-GYRPVHNIRGHWAPGGGYRPVHNIRGHWAPG)
uptake compared with FAM-CGY peptide (FACS) [3]: considerably higher uptake

Compound: GYRPVHNIRGHWAPG [SEQ ID NO: 1, targeting peptide of WO2011/005098]
liposome uptake when peptide is coupled to liposomes [4]: did not significantly increase liposome uptake

Compound: GYRPVHNIRGHWAPGGGYRPVHNIRGHWAPG [DP]
translocation of plasmids into cells ([5]; charge ratios of peptide/DNA more than 20): able to mediate translocation of plasmids into cells | transfection efficiency (GFP fluorescence intensity) ([5]; peptide/DNA charge ratio 40:1, 48 h): comparable with commercial transfection reagent Lipofectamine® 2000

Compound: Rh-CGY: Rhdomine B conjugated with CGY peptide in the N-terminal (RhodamineB-CGYRPVHNIRGHWAPG)
mean (average) size of self-assembly (NTA) [6]: 131±60 nm | mode (modal size) of self-assembly (NTA) [6]: 94 nm | uptake / delivery of cargo into hCMEC/D3 cells [7]: can efficiently enter the hCMEC/D3 cells
